In paper PMC10981686, “Structural bases of inhibitory mechanism of CaV1.2 channel inhibitors” (Nature Communications, 2024):
pIC50: −log10 of the molar value. Values joined by “and” are separate entries in the source; they are usually repeats but may differ in a detail not shown here. Equal values may be shown once. Read-outs that look alike come from different tables or passages of the source.

How the values were obtained:
[1] = test system: CaV1.2 with substitutions at positions T1056 and Q1060; parameters: method as in PMID 9006896; details: result in words; cited from earlier work
CaV1.2^Q1060M = biological target: T1, CaV1.2^Q1060M (Homo sapiens, UniProt Q13936, Q1060M); assay: whole-cell patch clamp inhibition curves in HEK293T cells, Q1060M mutant; assay type: cell-based
T1 construct: superfolder GFP (sfGFP) (C); Twin-Strep (C); expressed in transfected cells; host or cells: HEK293T
Protocol: (§1) Whole-cell voltage-clamp recordings were carried out using human embryonic kidney 293 T (HEK293T) cells, which were cultured in Dulbecco’s Modified Eagle Medium (DMEM, Gibco) supplemented with 10% (v/v) fetal bovine serum (FBS, PAN-Biotech) at 37 °C supplemented with 5% CO2. Three distinct recombinant baculoviruses encoding CaV1.2, α2δ1, and β2 were used to coinfect HEK293T cells once they reached a confluence of 40–60%. After 8−12 h, transfected cells were re-plated on 8 × 8 mm coverslips, and sodium butyrate was added to the culture at a final concentration of 0.5−2.5 mM to improve protein expression. Whole-cell recordings of activation curves were performed from isolated GFP-positive HEK293T cells at 20−28 h after transfection with recombinant baculoviruses. […] Pipettes were pulled to obtain final resistances of 2−6 MΩ with a Sutter P-97 puller and heat-polished before employment. […] The series resistance was not compensated in these experiments. […] Signals were digitized at 10 kHz and low-pass filtered at 2 kHz. Data were analyzed with Clampfit 10.7.
(§2) To measure the inhibition curves, 2 μg endotoxin-free plasmids of wild-type (WT) or mutants generated by PCR expressing CaV1.2, α2δ1, and β2 were transiently transfected using 1.2 μg Lipofectamine 2000 Reagent (Thermo Fisher Scientific). For curves determining, re-plated cells were held at −100 mV, and then depolarized at +10 mV to elicit inward currents. To ensure stable currents during measurement, a series of traces were pre-recorded at a specific time interval without drug application for each construct. […] Perfusions applied using a gravity-driven system. […] Data analyses were performed using Origin 2022 (Origin Lab Corporation), GraphPad Prism 9 (GraphPad Software, Inc.) and Adobe illustrator 2018.

[2] = test system: L-type and T-type channels; parameters: method as in earlier work; details: result in words, 82 and references of Supplementary Table 2, cited from earlier work
T-type CaV channels = details: cited from earlier work
[3] = biological target: T2, CaV1.2^WT (human CaV1.2 with α2δ1 and β2) (Homo sapiens, UniProt Q13936); assay: whole-cell patch clamp inhibition curves in HEK293T cells, wild-type CaV1.2; assay type: cell-based; details: for logIC50 (best-fit value): X values in μM
T2 construct: superfolder GFP (sfGFP) (C); Twin-Strep (C); expressed in transfected cells; host or cells: HEK293T
Protocol: as §1, §2

N-type CaV channels = details: cited from earlier work
CaV1.2^Q1060F = biological target: T3, CaV1.2^Q1060F (Homo sapiens, UniProt Q13936, Q1060F); assay: whole-cell patch clamp inhibition curves in HEK293T cells, Q1060F mutant; assay type: cell-based
T3 construct: superfolder GFP (sfGFP) (C); Twin-Strep (C); expressed in transfected cells; host or cells: HEK293T
Protocol: as §1, §2

CaV1.2^T1056Y = biological target: T4, CaV1.2^T1056Y (Homo sapiens, UniProt Q13936, T1056Y); assay: whole-cell patch clamp inhibition curves in HEK293T cells, T1056Y mutant; assay type: cell-based
T4 construct: superfolder GFP (sfGFP) (C); Twin-Strep (C); expressed in transfected cells; host or cells: HEK293T
Protocol: as §1, §2

CaV1.2^N741W = biological target: T5, CaV1.2^N741W (Homo sapiens, UniProt Q13936, N741W); assay: whole-cell patch clamp inhibition curves in HEK293T cells, N741W mutant; assay type: cell-based
T5 construct: superfolder GFP (sfGFP) (C); Twin-Strep (C); expressed in transfected cells; host or cells: HEK293T
Protocol: as §1, §2

CaV1.2^N1179W = biological target: T6, CaV1.2^N1179W (Homo sapiens, UniProt Q13936, N1179W); assay: whole-cell patch clamp inhibition curves in HEK293T cells, N1179W mutant; assay type: cell-based
T6 construct: superfolder GFP (sfGFP) (C); Twin-Strep (C); expressed in transfected cells; host or cells: HEK293T
Protocol: as §1, §2

T2 sequence (Q13936 whole entry): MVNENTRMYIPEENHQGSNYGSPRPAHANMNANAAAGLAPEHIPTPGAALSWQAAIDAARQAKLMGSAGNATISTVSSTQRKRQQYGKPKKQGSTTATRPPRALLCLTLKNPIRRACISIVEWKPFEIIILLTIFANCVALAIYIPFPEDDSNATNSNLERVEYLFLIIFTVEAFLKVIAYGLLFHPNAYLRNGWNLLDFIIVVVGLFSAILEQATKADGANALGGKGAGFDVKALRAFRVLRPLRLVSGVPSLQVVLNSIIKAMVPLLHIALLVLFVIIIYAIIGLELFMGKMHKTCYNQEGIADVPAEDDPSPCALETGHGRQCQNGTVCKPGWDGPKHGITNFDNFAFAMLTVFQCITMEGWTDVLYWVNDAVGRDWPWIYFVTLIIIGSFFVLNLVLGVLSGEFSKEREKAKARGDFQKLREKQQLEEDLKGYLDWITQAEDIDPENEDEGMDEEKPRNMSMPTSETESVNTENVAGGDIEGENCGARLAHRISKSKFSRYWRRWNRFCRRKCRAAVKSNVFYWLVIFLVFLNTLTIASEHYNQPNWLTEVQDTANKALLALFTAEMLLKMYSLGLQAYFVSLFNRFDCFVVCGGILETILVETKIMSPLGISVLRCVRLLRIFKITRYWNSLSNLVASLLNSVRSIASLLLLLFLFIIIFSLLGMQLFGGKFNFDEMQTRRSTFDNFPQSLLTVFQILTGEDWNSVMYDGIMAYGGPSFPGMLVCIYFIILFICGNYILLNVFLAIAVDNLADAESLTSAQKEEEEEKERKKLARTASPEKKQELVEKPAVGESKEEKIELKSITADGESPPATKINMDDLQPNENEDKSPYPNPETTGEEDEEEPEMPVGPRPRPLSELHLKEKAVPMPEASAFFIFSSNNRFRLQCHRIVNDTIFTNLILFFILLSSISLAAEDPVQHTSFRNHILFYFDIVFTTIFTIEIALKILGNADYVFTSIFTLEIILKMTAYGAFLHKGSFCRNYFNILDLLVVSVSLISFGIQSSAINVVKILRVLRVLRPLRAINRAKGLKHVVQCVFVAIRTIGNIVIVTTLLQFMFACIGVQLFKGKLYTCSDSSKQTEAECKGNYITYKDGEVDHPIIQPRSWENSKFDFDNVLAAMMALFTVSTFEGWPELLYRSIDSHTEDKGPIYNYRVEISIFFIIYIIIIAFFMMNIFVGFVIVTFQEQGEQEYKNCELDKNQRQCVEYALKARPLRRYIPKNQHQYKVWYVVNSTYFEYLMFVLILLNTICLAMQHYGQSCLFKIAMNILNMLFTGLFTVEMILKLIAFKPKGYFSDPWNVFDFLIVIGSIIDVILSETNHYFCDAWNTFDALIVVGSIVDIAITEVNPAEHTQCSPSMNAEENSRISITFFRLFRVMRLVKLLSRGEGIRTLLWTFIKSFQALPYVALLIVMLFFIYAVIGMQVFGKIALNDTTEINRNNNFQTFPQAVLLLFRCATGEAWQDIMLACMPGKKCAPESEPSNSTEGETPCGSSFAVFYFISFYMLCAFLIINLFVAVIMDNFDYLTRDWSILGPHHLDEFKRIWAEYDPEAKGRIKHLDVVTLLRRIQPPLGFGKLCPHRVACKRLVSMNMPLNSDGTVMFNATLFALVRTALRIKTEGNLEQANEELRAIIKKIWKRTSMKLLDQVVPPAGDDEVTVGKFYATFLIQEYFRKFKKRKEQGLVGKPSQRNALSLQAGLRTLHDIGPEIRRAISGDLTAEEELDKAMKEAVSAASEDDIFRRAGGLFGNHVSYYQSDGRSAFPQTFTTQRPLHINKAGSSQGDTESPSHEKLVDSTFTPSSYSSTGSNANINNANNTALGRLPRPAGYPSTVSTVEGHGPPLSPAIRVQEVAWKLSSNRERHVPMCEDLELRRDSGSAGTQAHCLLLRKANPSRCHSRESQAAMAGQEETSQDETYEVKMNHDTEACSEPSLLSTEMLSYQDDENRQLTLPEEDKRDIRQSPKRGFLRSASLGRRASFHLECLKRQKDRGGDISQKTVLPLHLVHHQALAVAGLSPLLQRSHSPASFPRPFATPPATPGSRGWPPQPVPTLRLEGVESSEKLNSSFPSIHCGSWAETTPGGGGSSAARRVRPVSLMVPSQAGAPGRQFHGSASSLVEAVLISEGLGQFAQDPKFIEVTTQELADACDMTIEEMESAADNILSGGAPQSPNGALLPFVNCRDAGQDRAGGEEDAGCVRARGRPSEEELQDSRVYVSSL
T2 sequence (P54289 25-946 partner limits assumed): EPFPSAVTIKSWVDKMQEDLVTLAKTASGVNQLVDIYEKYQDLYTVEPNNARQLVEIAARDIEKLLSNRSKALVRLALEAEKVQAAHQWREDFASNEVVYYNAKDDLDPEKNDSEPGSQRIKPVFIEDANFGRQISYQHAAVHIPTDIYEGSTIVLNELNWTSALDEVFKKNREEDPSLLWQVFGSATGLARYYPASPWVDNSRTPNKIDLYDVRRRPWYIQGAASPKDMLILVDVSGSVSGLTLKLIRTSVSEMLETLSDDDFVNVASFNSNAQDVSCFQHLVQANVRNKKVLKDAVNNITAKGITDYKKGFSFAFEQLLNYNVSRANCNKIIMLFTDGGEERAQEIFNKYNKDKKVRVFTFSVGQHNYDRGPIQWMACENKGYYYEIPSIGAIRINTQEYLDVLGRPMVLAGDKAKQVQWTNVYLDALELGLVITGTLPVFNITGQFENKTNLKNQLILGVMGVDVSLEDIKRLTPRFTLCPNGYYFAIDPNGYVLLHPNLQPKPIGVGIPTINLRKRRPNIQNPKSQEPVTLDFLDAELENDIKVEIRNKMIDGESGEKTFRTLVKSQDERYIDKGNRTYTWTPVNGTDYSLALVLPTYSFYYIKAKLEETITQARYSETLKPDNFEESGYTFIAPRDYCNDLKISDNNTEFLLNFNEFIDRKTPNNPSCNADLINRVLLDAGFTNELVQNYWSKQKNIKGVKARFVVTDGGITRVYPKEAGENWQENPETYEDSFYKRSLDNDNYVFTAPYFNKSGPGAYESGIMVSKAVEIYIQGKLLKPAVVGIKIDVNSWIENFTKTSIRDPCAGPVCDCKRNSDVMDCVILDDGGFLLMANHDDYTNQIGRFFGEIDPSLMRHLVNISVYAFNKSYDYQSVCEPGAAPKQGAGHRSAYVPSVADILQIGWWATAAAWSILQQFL
T2 sequence (P54289 947-1103 partner limits assumed): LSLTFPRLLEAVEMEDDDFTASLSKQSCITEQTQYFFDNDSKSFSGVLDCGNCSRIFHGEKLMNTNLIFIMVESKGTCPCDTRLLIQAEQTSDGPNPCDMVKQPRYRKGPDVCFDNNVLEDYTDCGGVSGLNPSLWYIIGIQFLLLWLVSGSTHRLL
T2 sequence (Q08289 1-606 isoform Q08289-3 partner): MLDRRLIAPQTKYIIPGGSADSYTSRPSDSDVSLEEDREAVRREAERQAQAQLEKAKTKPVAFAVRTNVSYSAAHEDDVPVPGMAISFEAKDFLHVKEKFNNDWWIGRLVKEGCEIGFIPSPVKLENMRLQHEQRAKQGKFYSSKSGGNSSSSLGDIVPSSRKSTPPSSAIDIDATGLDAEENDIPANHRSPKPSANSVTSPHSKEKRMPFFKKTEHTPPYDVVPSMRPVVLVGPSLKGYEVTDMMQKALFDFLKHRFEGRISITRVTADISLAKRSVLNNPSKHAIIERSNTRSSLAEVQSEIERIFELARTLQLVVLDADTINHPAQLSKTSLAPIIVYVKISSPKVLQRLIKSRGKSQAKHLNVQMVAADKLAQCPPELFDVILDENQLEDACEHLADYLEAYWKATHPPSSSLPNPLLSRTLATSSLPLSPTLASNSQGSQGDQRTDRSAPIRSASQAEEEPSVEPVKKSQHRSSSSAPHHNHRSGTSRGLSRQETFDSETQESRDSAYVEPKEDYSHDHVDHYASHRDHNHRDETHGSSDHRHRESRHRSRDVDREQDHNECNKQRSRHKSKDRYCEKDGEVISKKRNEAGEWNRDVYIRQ
T6 sequence (Q13936 whole entry N1179W): as the sequence (Q13936 whole entry) above, with N1179W counted along it
T6 sequence (P54289 25-946 partner limits assumed): as the sequence (P54289 25-946 partner limits assumed) above
T6 sequence (P54289 947-1103 partner limits assumed): as the sequence (P54289 947-1103 partner limits assumed) above
T6 sequence (Q08289 1-606 isoform Q08289-3 partner): as the sequence (Q08289 1-606 isoform Q08289-3 partner) above

CC1=C(C(=O)OC(C)C)[C@@H](c2cccc3nonc23)C([N+](=O)[O-])=C(C)N1 [R202-791]
effect of substitutions at T1056 and Q1060 on sensitivity of CaV1.2 to the drug [1]: almost abolished the sensitivity

COC(=O)C1=C(C)NC(C)=C(C(=O)OC2CCCN(Cc3ccccc3)C2)C1c1cccc([N+](=O)[O-])c1 (stereo not drawn) [benidipine]
remaining activity at 0.01 µM (CaV1.2^Q1060M; HEK-293T, benidipine 0.01 μM, Q1060M, single experiments, Supplementary Fig. 7c source data, read-out: normalized current (I/Imax)): 97%
remaining activity at 0.1 µM (CaV1.2^Q1060M; HEK-293T, benidipine 0.1 μM, Q1060M, single experiments, Supplementary Fig. 7c source data, read-out: normalized current (I/Imax)): 88.7%
remaining activity at 1 µM (CaV1.2^Q1060M; HEK-293T, benidipine 1 μM, Q1060M, single experiments, Supplementary Fig. 7c source data, read-out: normalized current (I/Imax)): 73.2%
remaining activity at 10 µM (CaV1.2^Q1060M; HEK-293T, benidipine 10 μM, Q1060M, single experiments, Supplementary Fig. 7c source data, read-out: normalized current (I/Imax)): 46.7%
remaining activity at 100 µM (CaV1.2^Q1060M; HEK-293T, benidipine 100 μM, Q1060M, single experiments, Supplementary Fig. 7c source data, read-out: normalized current (I/Imax)): 20.1%
pIC50 (CaV1.2^Q1060M; IC50 of benidipine on CaV1.2^Q1060M, held at -100 mV, depolarized at +10 mV every 1 min, n = 4): 5.12
HillSlope (best-fit value) (CaV1.2^Q1060M; benidipine, Q1060M): -0.4107
logIC50 (best-fit value) (CaV1.2^Q1060M; benidipine, Q1060M, X values in μM): 0.8728
IC50 (CaV1.2^Q1060M; benidipine, Q1060M, variable slope fit, X values in μM per sheet Supplementary Figure 7c, read-out: IC50 (best-fit value)): 7.46 µM
selectivity class for L-type and T-type channels [2]: L/T-type selective
selectivity class for L-type and T-type channels ([2]; listed as Benidipine): non-selective
pIC50 (T-type CaV channels): 4.96 and ~4.96
remaining activity at 0.01 µM ([3]; HEK-293T, benidipine 0.01 μM, WT, single experiments, Supplementary Fig. 7c source data, read-out: normalized current (I/Imax)): 91%
remaining activity at 1 µM ([3]; HEK-293T, benidipine 1 μM, WT, single experiments, Supplementary Fig. 7c source data, read-out: normalized current (I/Imax)): 27.4%
CaV1.2 current reduction ([3]; benidipine 100 μM): 90%
HillSlope (best-fit value) ([3]; benidipine, WT): -0.5499
logIC50 (best-fit value) ([3]; benidipine, WT): -0.6638
pIC50 (N-type CaV channels): ~4.46
remaining activity at 0.01 µM (CaV1.2^Q1060F; HEK-293T, benidipine 0.01 μM, Q1060F, single experiments, Supplementary Fig. 7c source data, read-out: normalized current (I/Imax)): 93.9%
remaining activity at 0.1 µM (CaV1.2^Q1060F; HEK-293T, benidipine 0.1 μM, Q1060F, single experiments, Supplementary Fig. 7c source data, read-out: normalized current (I/Imax)): 88.2%
remaining activity at 1 µM (CaV1.2^Q1060F; HEK-293T, benidipine 1 μM, Q1060F, single experiments, Supplementary Fig. 7c source data, read-out: normalized current (I/Imax)): 81.9%
pIC50 (CaV1.2^Q1060F; IC50 of benidipine on CaV1.2^Q1060F, held at -100 mV, depolarized at +10 mV every 1 min, n = 4): 4.93
HillSlope (best-fit value) (CaV1.2^Q1060F; benidipine, Q1060F): -0.3921
logIC50 (best-fit value) (CaV1.2^Q1060F; benidipine, Q1060F, X values in μM): 1.07
IC50 (CaV1.2^Q1060F; benidipine, Q1060F, variable slope fit, X values in μM per sheet Supplementary Figure 7c, read-out: IC50 (best-fit value)): 11.7 µM
remaining activity at 0.01 µM (CaV1.2^T1056Y; HEK-293T, benidipine 0.01 μM, T1056Y, single experiments, Supplementary Fig. 7c source data, read-out: normalized current (I/Imax)): 99.8%
remaining activity at 0.1 µM (CaV1.2^T1056Y; HEK-293T, benidipine 0.1 μM, T1056Y, single experiments, Supplementary Fig. 7c source data, read-out: normalized current (I/Imax)): 91.4%
remaining activity at 1 µM (CaV1.2^T1056Y; HEK-293T, benidipine 1 μM, T1056Y, single experiments, Supplementary Fig. 7c source data, read-out: normalized current (I/Imax)): 85.3%
remaining activity at 10 µM (CaV1.2^T1056Y; HEK-293T, benidipine 10 μM, T1056Y, single experiments, Supplementary Fig. 7c source data, read-out: normalized current (I/Imax)): 67.2%
HillSlope (best-fit value) (CaV1.2^T1056Y; benidipine, T1056Y): -0.3204
logIC50 (best-fit value) (CaV1.2^T1056Y; benidipine, T1056Y, X values in μM): 2.427
pIC50 (CaV1.2^T1056Y; held at -100 mV, depolarized at +10 mV every 1 min, n = 4): < 4.00

COCCOC(=O)C1=C(C)NC(C)=C(C(=O)OC/C=C/c2ccccc2)C1c1cccc([N+](=O)[O-])c1 (stereo not drawn) [cilnidipine, Cilnidipine]
selectivity class for L-type and T-type channels [2]: L-type selective
inhibition of T-type channels (T-type CaV channels; result in words): cannot inhibit T-type channels

CCOC(=O)C1=C(C)NC(C)=C(C(=O)OC)C1c1cccc(Cl)c1Cl (stereo not drawn) [felodipine, Felodipine]
selectivity class for L-type and T-type channels [2]: L-type selective

COC(=O)C1=C(C)NC(C)=C(C(=O)OCCN2CCN(C(c3ccccc3)c3ccccc3)CC2)C1c1cccc([N+](=O)[O-])c1 (stereo not drawn) [manidipine, Manidipine]
selectivity class for L-type and T-type channels [2]: L/T-type selective
selectivity class for L-type and T-type channels ([2]; listed as Manidipine): non-selective

COC(=O)C1=C(C)NC(C)=C(C(=O)OC)C1c1ccccc1[N+](=O)[O-] [nifedipine]
selectivity class for L-type and T-type channels [2]: L-type selective
sensitivity of T-type CaV channels (T-type CaV channels; result in words): no sensitivity
sensitivity of N-type CaV channels (N-type CaV channels; result in words): no sensitivity

COCCOC(=O)C1=C(C)NC(C)=C(C(=O)OC(C)C)C1c1cccc([N+](=O)[O-])c1 (stereo not drawn) [nimodipine, Nimodipine]
selectivity class for L-type and T-type channels [2]: non-selective
preference among T-type channels (T-type CaV channels; CaV3.1, CaV3.2, CaV3.3): preference for inhibiting CaV3.2 and CaV3.3 over CaV3.1

CCOC(=O)C1=C(C)NC(C)=C(C(=O)OC)C1c1cccc([N+](=O)[O-])c1 (stereo not drawn) [nitrendipine, Nitrendipine]
selectivity class for L-type and T-type channels [2]: L-type selective

COc1ccc2cc1Oc1ccc(cc1)C[C@H]1c3cc(c(OC)cc3CCN1C)Oc1c(OC)c(OC)cc3c1[C@H](C2)N(C)CC3 [tetrandrine]
remaining activity at 0.001 µM (CaV1.2^N741W; HEK-293T, tetrandrine 0.001 μM, N741W, single experiments, Fig. 3f source data, read-out: normalized current (I/Imax)): 90.1%
remaining activity at 0.1 µM (CaV1.2^N741W; HEK-293T, tetrandrine 0.1 μM, N741W, single experiments, Fig. 3f source data, read-out: normalized current (I/Imax)): 49.4%
remaining activity at 10 µM (CaV1.2^N741W; HEK-293T, tetrandrine 10 μM, N741W, single experiments, Fig. 3f source data, read-out: normalized current (I/Imax)): 22.8%
pIC50 (CaV1.2^N741W; IC50 of tetrandrine on CaV1.2^N741W, held at -100 mV, depolarized at +10 mV every 20 s, n = 10): 7.15
HillSlope (best-fit value) (CaV1.2^N741W; tetrandrine, N741W): -0.3074
logIC50 (best-fit value) (CaV1.2^N741W; tetrandrine, N741W, X values in μM): -1.147
IC50 (CaV1.2^N741W; tetrandrine, N741W, variable slope fit, bottom 0, top 1, X values in μM per sheet Figure 3f, read-out: IC50 (best-fit value)): 0.0712 µM
remaining activity at 0.001 µM ([3]; HEK-293T, tetrandrine 0.001 μM, WT, single experiments, Fig. 3f source data, read-out: normalized current (I/Imax)): 84.9%
pIC50 ([3]; IC50 of tetrandrine on CaV1.2^WT, held at -100 mV, depolarized at +10 mV every 20 s, n = 10): ~7.85 and 7.85
CaV1.2 current reduction ([3]; tetrandrine 10 μM): 90%
HillSlope (best-fit value) ([3]; tetrandrine, WT): -0.4914
logIC50 (best-fit value) ([3]; tetrandrine, WT): -1.849
remaining activity at 0.001 µM (CaV1.2^N1179W; HEK-293T, tetrandrine 0.001 μM, N1179W, single experiments, Fig. 3f source data, read-out: normalized current (I/Imax)): 86.3%
pIC50 (CaV1.2^N1179W; held at -100 mV, depolarized at +10 mV every 20 s, n = 10): 7.38
HillSlope (best-fit value) (CaV1.2^N1179W; tetrandrine, N1179W): -0.3696
logIC50 (best-fit value) (CaV1.2^N1179W; tetrandrine, N1179W, X values in μM): -1.379
